In ChEMBL document CHEMBL4308834, “Novel Allosteric Activators for Ferroptosis Regulator Glutathione Peroxidase 4” (J Med Chem, 2018) one finds inhibition, Activity and EC150 data, which are given here for one compound.

Each structure is given as a SMILES string. The source made the active and inactive calls. The calls are words filed in the database; no cut-off is given here.

For experiment [1], the target named is T1, Phospholipid hydroperoxide glutathione peroxidase GPX4 (Homo sapiens) (UniProt P36969).
T1 sequence (whole entry): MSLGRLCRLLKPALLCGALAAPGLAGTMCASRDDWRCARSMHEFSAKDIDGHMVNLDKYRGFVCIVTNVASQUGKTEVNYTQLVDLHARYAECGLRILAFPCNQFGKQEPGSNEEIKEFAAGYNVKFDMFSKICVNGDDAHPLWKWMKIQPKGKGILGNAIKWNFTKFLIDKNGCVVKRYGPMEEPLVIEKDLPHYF
In words: Activation of GPX4 in human HT1080 cells assessed as inhibition of erastin-induced ferroptosis at 125 uM preincubated for 30 mins followed by erastin addition measured after 24 hrs by MTS assay. The class given is cell-based.

The target of experiment [2] is T1, Phospholipid hydroperoxide glutathione peroxidase GPX4 (Homo sapiens). Nature of the experiment: Activation of GPX4 in A23187-stimulated human PMN leukocytes assessed as increase in 12-HETE preincubated for 15 mins followed by A23187 addition and measured after 120 mins by LC-MS analysis.
For experiment [3], the target named is Phospholipid hydroperoxide glutathione peroxidase GPX4 (Mus musculus) (UniProt O70325). In words: Activation of GPX4 in MEF assessed as increase in oxidized glutathione-mediated oxidation of NADPH to NADP+ using tert-butyl hydroperoxide as substrate preincubated for 5 mins followed by substrate addition measured for 6 mins by glutathione reductase enzyme coupled fluorescence assay. The class given is cell-based.

The species named for experiment [4] is Homo sapiens. In words: Activation of recombinant His-tagged human cytosolic GPX4 U46C mutant expressed in Escherichia coli M15 assessed as increase in oxidized glutathione-mediated oxidation of NADPH to NADP+ at 200 uM using tert-butyl hydroperoxide as substrate preincubated for 5 mins followed by substrate addition measured for 6 mins by glutathione reductase enzyme coupled fluorescence assay relative to control.

Experiment [5] addresses T1, Phospholipid hydroperoxide glutathione peroxidase GPX4 (Homo sapiens). Nature of the experiment: Activation of GPX4 (unknown origin) expressed in HEK293T cells harboring luc2P/NF-kBRE/Hygro plasmid assessed as inhibition of IL1beta-stimulated NFkB activation preincubated for 30 mins followed by […] and measured after 6 hrs by luciferase reporter gene assay. Type of experiment: cell-based.

Experiment [6] shares this target. Nature of the experiment: Activation of GPX4 in A23187-stimulated human PMN leukocytes assessed as increase in 15-HETE preincubated for 15 mins followed by A23187 addition and measured after 120 mins by LC-MS analysis.
Experiment [7] shares this target. In words: Activation of GPX4 (unknown origin) expressed in HEK293T cells harboring luc2P/NF-kBRE/Hygro plasmid assessed as inhibition of TNFalpha-stimulated NFkB activation preincubated for 30 mins followed by TNFalpha addition and measured after 6 hrs by luciferase reporter gene assay. Type of experiment: cell-based. On the technique in general: Reporter assays use an easily measured gene product as a stand-in for the process of interest.

Experiment [8] is filed under the species Homo sapiens. Nature of the experiment: Activation of recombinant human GPX4 D21A/D23A/U46C mutant expressed in Escherichia coli M15 assessed as increase in oxidized glutathione-mediated oxidation of NADPH to NADP+ using tert-butyl hydroperoxide as substrate preincubated for 5 mins followed by substrate addition measured for 6 mins by glutathione reductase enzyme coupled fluorescence assay relative to GPX4 U46C mutant control.

Experiment [9] has as its target T2, Polyunsaturated fatty acid 5-lipoxygenase (Homo sapiens) (UniProt P09917).
T2 sequence (whole entry): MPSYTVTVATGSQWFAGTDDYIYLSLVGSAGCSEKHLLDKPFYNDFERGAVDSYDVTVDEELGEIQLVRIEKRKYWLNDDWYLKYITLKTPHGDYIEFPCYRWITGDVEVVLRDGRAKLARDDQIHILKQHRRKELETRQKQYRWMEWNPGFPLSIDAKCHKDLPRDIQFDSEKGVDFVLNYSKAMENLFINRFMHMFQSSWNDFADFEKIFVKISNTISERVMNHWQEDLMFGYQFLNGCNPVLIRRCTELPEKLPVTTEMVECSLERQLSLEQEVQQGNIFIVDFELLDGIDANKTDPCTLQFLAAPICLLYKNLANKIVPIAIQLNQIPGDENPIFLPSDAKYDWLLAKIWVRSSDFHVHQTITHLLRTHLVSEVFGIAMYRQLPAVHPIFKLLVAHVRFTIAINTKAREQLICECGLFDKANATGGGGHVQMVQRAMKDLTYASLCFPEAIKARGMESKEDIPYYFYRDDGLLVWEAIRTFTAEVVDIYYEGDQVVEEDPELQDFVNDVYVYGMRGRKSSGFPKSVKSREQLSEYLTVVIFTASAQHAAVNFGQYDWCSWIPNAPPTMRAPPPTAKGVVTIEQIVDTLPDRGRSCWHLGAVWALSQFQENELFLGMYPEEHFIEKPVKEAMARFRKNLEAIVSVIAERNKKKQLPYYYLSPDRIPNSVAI
In words: Inhibition of human 5-LOX at 500 uM preincubated for 10 mins followed by arachidonic acid substrate addition in presence of H2DCFDA by spectrophotometric method.

In experiment [10] the target is T3, Prostaglandin G/H synthase 2 (Homo sapiens) (UniProt P35354).
T3 sequence (whole entry): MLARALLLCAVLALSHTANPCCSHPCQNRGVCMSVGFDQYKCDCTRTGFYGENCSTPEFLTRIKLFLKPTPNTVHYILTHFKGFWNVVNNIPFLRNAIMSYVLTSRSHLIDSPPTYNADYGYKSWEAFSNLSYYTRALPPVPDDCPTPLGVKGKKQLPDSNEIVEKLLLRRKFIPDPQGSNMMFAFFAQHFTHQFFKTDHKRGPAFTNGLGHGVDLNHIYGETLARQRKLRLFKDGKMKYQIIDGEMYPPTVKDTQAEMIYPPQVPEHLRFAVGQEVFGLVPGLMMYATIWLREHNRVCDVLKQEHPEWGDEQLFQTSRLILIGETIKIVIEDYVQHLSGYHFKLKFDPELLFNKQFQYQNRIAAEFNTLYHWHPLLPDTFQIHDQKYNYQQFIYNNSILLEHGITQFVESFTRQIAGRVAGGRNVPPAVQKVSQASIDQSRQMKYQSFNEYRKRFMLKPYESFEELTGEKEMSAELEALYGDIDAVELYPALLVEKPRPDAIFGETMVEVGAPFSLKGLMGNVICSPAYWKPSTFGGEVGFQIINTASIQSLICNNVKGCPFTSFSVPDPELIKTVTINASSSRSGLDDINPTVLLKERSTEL
In words: Inhibition of COX2 (unknown origin) at 500 uM preincubated for 15 mins followed by arachidonic acid substrate addition in presence of TMPD by spectrophotometric method.

The nature of experiment [11]: Antioxidant activity assessed as DPPH radical scavenging activity at 500 uM. Type of experiment: functional. (In general: Loss of DPPH colour is used to gauge radical scavenging.)
Experiment [12] is filed under the species Homo sapiens. Nature of the experiment: Activation of recombinant His-tagged human cytosolic GPX4 U46C mutant expressed in Escherichia coli M15 assessed as increase in oxidized glutathione-mediated oxidation of NADPH to NADP+ using tert-butyl hydroperoxide as substrate preincubated for 5 mins followed by substrate addition measured for 6 mins by glutathione reductase enzyme coupled fluorescence assay.

For experiment [13], the species on record is Homo sapiens. Nature of the experiment: Activation of recombinant human GPX4 D23A/U46C double mutant expressed in Escherichia coli M15 assessed as increase in oxidized glutathione-mediated oxidation of NADPH to NADP+ using tert-butyl hydroperoxide as substrate preincubated for 5 mins followed by substrate addition measured for 6 mins by glutathione reductase enzyme coupled fluorescence assay relative to GPX4 U46C mutant control.

A short description of experiment [14]: Iron chelating activity assessed as compound-Fe2+ complex formation after 10 mins by Prussian blue assay.

Phospholipid hydroperoxide glutathione peroxidase GPX4 (Mus musculus), sequence (O70325 whole entry): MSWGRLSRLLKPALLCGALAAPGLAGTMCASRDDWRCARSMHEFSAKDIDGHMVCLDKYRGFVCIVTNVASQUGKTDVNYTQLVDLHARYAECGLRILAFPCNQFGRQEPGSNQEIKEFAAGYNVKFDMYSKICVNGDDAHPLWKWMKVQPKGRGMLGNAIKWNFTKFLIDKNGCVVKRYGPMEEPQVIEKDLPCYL

`NS(=O)(=O)c1ccc(NC(S)=NCc2ccc(Cl)cc2)cc1`: in experiment [1], the inhibition result is “Active”. For the same compound, the Activity entry in [2] is “Dose-dependent effect”; in [3] it was “Dose-dependent effect”; in experiment [4], 127%; in experiment [6] it was “Dose-dependent effect”; in experiment [12], “Dose-dependent effect”. Also, the inhibition entry in [5] and in experiment [7] was “Dose-dependent effect” each time. Further, the EC150 in experiment [8] was more than 1000 µM; in experiment [12], 248 µM; in experiment [13], 372 µM. The inhibition entry in experiment [9] and in experiment [10] was “inactive” in each case. In addition, the result in experiment [11] and in experiment [14] was inactive.
